Patent US20050250677A1, “Glycopeptide antibiotic derivatives” (priority 2002, published 2005)
Like-named read-outs stand apart in the source and are kept apart here.

Tests used:
[1] = tested on: SARS virus (strain Frankfurt-1); assay: microbe, parasite or virus in culture; format: cell-based, human corona (SARS) virus; conditions: read-out: EC50 SARS virus
in vitro [2] = conditions: cat
FCV = assay: Feline corona virus assay in Feline Crandel kidney cells (MTS); format: cell-based; conditions: read-out: EC50 FCV
Protocol: Feline Crandel kidney cells were seeded in 96-well microtiter plates at 24,000 cells/well. Then, 24 hrs later, an appropriate inoculum of FCV is added together with 5-fold dilutions of the test compounds. After 4 days, a MTS/PMS solution was added to each well. Following a 90 min incubation period at 37° C., the optical density of the wells was read at 498 nm in a microplate reader.

in vitro [3] = conditions: monkey (simian)
HIV-2(ROD) = assay: Inhibition of HIV-2 (ROD)-induced cytopathicity (giant cell formation) in CEM cells; format: cell-based; conditions: read-out: EC50 HIV-2 (concentration required to inhibit HIV-induced giant cell formation by 50%); HIV-2, CEM cell cultures
Protocol: (§1) A variety of glycopeptide antibiotic derivatives of vancomycin, eremomycin and teicoplanin including their aglycon derivatives were evaluated for their inhibitory activity against HIV-1 (IIIB) and HIV-2(ROD) in CEM cell cultures.

murine leukemia L1210 = assay: Cytostatic activity assay, L1210 cells; format: cell-based; conditions: read-out: IC50 L1210 (compound concentration required to inhibit tumor cell proliferation by 50%)
HEL cells [4] = tested on: HEL cells
HIV-1 (HE) = assay: Inhibition of HIV-1 (HE)-induced cytopathicity in CEM/0 cells; format: cell-based
HIV-1 (MN) = assay: Inhibition of HIV-1 (MN)-induced cytopathicity in CEM/0 cells; format: cell-based
HIV-1 (IIIB) [5] = assay: Inhibition of HIV-1 (IIIB)-induced cytopathicity (giant cell formation) in CEM cells; format: cell-based
Protocol: as §1

human lymphocyte CEM = assay: Cytostatic activity assay, CEM cells; format: cell-based; conditions: read-out: IC50 CEM (compound concentration required to inhibit tumor cell proliferation by 50%)
VZV (wild-type strains) = assay: Anti-VZV assay (wild-type strains): virus-induced cytopathicity in HEL cell cultures; format: cell-based, varicella-zoster virus; conditions: for EC50: HEL cell cultures
[6] = tested on: human lymphocyte Molt4/clone 8; assay: Cytostatic activity assay, Molt4/clone 8 cells; format: cell-based; conditions: read-out: IC50 Molt4/C8 (compound concentration required to inhibit tumor cell proliferation by 50%)
[7] = tested on: mutant HIV-1 strain Lys-103-Asn; assay: Anti-HIV-1 activity against mutant HIV-1 strain Lys-103-Asn in CEM cultures; format: cell-based
[8] = tested on: mutant HIV-1 strain Tyr-181-Cys; assay: Anti-HIV-1 activity against mutant HIV-1 strain Tyr-181-Cys in CEM cultures; format: cell-based
HEL cells [9] = conditions: read-out: CC50 (HEL), HEL cells
HIV-2 (EHO) = conditions: read-out: EC50 CEM/0 HIV-2 (EHO); CEM/0 cells
Protocol: (§2) Inhibition of HIV-1 (IIIB, HE, HN) and HIV-2(ROD, EHO, RF)-induced cytopathicity in CEM or C8166 or Molt4/C8 cells was measured in microtiter 96-well plates containing ˜3×10^5 CEM cells/ml, infected with 100 CCID50 of HIV per ml and containing appropriate dilutions of the test compounds. After 4 to 5 days of incubation at 37° C. in a CO2-controlled humidified atmosphere, CEM, C8166 or Molt4/C8 giant (syncytium) cell formation was examined microscopically.

HIV-2 (RF) = conditions: read-out: EC50 CEM/0 HIV-2 (RF); CEM/0 cells
Protocol: as §2

HIV-1(HE) = assay: Inhibition of HIV-1 (HE)-induced cytopathicity in MOLT4/C8 cells; format: cell-based
FCK cells = conditions: read-out: CC50 FCK; FCK cells
Vero cells = conditions: read-out: CC50 Vero
[10] = tested on: mutant HIV-1 strain Tyr-188-His; assay: Anti-HIV-1 activity against mutant HIV-1 strain Tyr-188-His in CEM cultures; format: cell-based
Protocol: as §2

[11] = tested on: mutant HIV-1 strain Leu-100-Ile; assay: Anti-HIV-1 activity against mutant HIV-1 strain Leu-100-Ile in CEM cultures; format: cell-based
HIV-1 (IIIB) [12] = assay: Inhibition of HIV-1 (IIIB)-induced cytopathicity in C8166 cells; format: cell-based
CMV = assay: Anti-CMV assay: virus-induced cytopathicity in HEL cell cultures
HIV = assay: Selection of resistant HIV strains in cell culture; format: cell-based; conditions: ≧9 weeks of attempts in cell culture
[13] = Severe acute respiratory syndrome coronavirus, Vero
[14] = CEM cultures, wild type in mutant panel, read-out: EC50 HIV-1 IIIB
[15] = CEM/0 cells, read-out: EC50 CEM/0 HIV-1 (IIIB)
[16] = read-out: EC50 HIV-1 (concentration required to inhibit HIV-induced giant cell formation by 50%), HIV-1, CEM cell cultures
[17] = VZV strain OKA, read-out: EC50 VZV (OKA)

Structure (SMILES)	EC50 (HIV-2(ROD))	IC50 (murine leukemia L1210)	EC50 (HIV-1 (HE))	EC50 (HIV-1 (MN))	EC50 (HIV-1 (IIIB) [5]; [14])	EC50 (HIV-1 (IIIB) [5]; [15])	EC50 (HIV-1 (IIIB) [5]; [16])	IC50 (human lymphocyte CEM)	IC50 [6]	EC50 [7]	EC50 [8]	EC50 (HIV-2 (EHO))	EC50 (HIV-2 (RF))	EC50 (HIV-1(HE))	CC50 (FCK cells)	CC50 (Vero cells)	EC50 [10]	EC50 ([1]; SARS virus in Vero cells)	EC50 [11]	EC50 (FCV; FCV in FCK cells)	further results
COC(=O)C1NC(=O)C2NC(=O)C(NC(=O)C(NC(=O)OC(C)(C)C)c3cc(Oc4ccc(CC(NC(=O)OCc5ccccc5)C(=O)O)cc4Cl)c(O)c(c3)Oc3ccc(cc3Cl)C2O)c2ccc(O)c(c2)-c2c(O)cc(O)cc21 (stereo not shown) [Compound 170]																					EC50 [1, 13]: 32 µM; CC50 (in vitro [2]): > 100 µM; EC50 (FCV; Felis catus): 23 µM; CC50 (in vitro [3]): > 100 µM
CCCCc1ccc(CNCC(=O)N2CCN(C(=O)C3NC(=O)C4NC(=O)C(NC(=O)C5NC(=O)C6NC(=O)C(Cc7ccc(c(Cl)c7)Oc7cc5cc(c7O)Oc5ccc(cc5Cl)C4O)NC(=O)C(N)c4ccc(O)c(c4)Oc4cc(O)cc6c4)c4ccc(O)c(c4)-c4c(O)cc(O)cc43)CC2)cc1 (stereo not shown) [Compound 46]	7 ± 4.2 µM	> 100 µM	35 ± 7.1 µM	9 ± 1.4 µM	4 µM	4 µM	4 µM	> 100 µM	> 100 µM	17 ± 4.2 µM	8 µM	35 ± 7.1 µM	10 µM	6.5 ± 4.3 µM							MTC (HEL) (HEL cells [4]; anti-VZV table): 20 to 80 µM; EC50 (VZV (wild-type strains); [17]): 810 nM; CC50 (HEL cells [9]; anti-VZV table): > 50 µM
CNC(=O)C1NC(=O)C2NC(=O)C(NC(=O)C3NC(=O)C4NC(=O)C(Cc5ccc(c(Cl)c5)Oc5cc3cc(c5O)Oc3ccc(cc3Cl)C2O)NC(=O)C(N)c2ccc(O)c(c2)Oc2cc(O)cc4c2)c2ccc(O)c(c2)-c2c1cc(O)c(CNC1C3CC4CC(C3)CC1C4)c2O (stereo not shown) [Compound 51]	17 ± 3.5 µM	212 ± 54 µM	40 µM	25 ± 7.1 µM	5 ± 1.4 µM	5 ± 1.4 µM	5 ± 1.4 µM	> 250 µM	> 250 µM	12 µM	9.5 ± 2.1 µM	13 ± 6.6 µM	9 ± 4.2 µM	25 ± 5 µM	≥ 100 µM	> 100 µM	11 ± 6.4 µM	39 µM	24 ± 6.3 µM	15 µM	
CCCCc1ccc(CN2CCN(Cc3c(O)cc4c(c3O)-c3cc(ccc3O)C3NC(=O)C5NC(=O)C6NC(=O)C(Cc7ccc(c(Cl)c7)Oc7cc5cc(c7O)Oc5ccc(cc5Cl)C(O)C(NC3=O)C(=O)NC4C(=O)NCCCN(C)C)NC(=O)C(N)c3ccc(O)c(c3)Oc3cc(O)cc6c3)CC2)cc1 (stereo not shown) [Compound 30]	5 ± 1.4 µM	29 ± 7 µM	5.5 ± 0.7 µM	7 µM	2.8 ± 0.4 µM	2.8 ± 0.4 µM	3 µM	> 500 µM	108 ± 79 µM			11 ± 1.4 µM	3.7 ± 1.25 µM	4.5 ± 0.7 µM	≥ 50 µM	> 100 µM	7.5 ± 0.7 µM	33 µM	6 ± 1.4 µM	9.2 µM	EC50 (HIV-1 (IIIB) [12]): ≥ 5 µM
CCCCc1ccc(CN2CCN(Cc3c(O)cc4c(c3O)-c3cc(ccc3O)C3NC(=O)C5NC(=O)C6NC(=O)C(Cc7ccc(c(Cl)c7)Oc7cc5cc(c7O)Oc5ccc(cc5Cl)C(O)C(NC3=O)C(=O)NC4C(=O)NC)NC(=O)C(N)c3ccc(O)c(c3)Oc3cc(O)cc6c3)CC2)cc1 (stereo not shown) [Compound 31]	3 ± 1.4 µM	61 ± 10 µM	9.5 ± 3.5 µM	6.5 ± 0.7 µM	2.8 ± 0.4 µM	2.8 ± 0.4 µM	1.7 ± 0.42 µM	> 500 µM	> 500 µM	6 ± 1.4 µM	8.5 ± 2.1 µM	6.8 ± 0.35 µM	3.7 ± 1.77 µM	3.7 ± 0.35 µM	≥ 20 µM	> 100 µM	6 ± 1.4 µM	24 µM	5.3 ± 2.5 µM	> 100 µM	MTC (HEL) (HEL cells [4]; anti-CMV table): 20 to 50 µM; MTC (HEL) (HEL cells [4]; anti-VZV table): 20 to 50 µM; EC50 (HIV-1 (IIIB) [12]): 6.6 ± 3.06 µM; EC50 (VZV (wild-type strains); [17]): 750 nM; EC50 (VZV (wild-type strains); VZV strain YS, read-out: EC50 VZV (YS)): 850 nM; anti-CMV activity (CMV): anti-CMV activity; EC50 (CMV; read-out: EC50 CMV AD-169, CMV strain AD-169, HEL cell cultures): ≥ 20 µM; EC50 (CMV; read-out: EC50 CMV Davis, CMV strain Davis, HEL cell cultures): 10 µM; CC50 (HEL cells [9]; anti-CMV table): > 200 µM; CC50 (HEL cells [9]; anti-VZV table): > 200 µM
CN(C)CCCNC(=O)C1NC(=O)C2NC(=O)C(NC(=O)C3NC(=O)C4NC(=O)C(Cc5ccc(c(Cl)c5)Oc5cc3cc(c5O)Oc3ccc(cc3Cl)C2O)NC(=O)C(N)c2ccc(O)c(c2)Oc2cc(O)cc4c2)c2ccc(O)c(c2)-c2c1cc(O)c(CNC1C3CC4CC(C3)CC1C4)c2O (stereo not shown) [Compound 19]	8 ± 2.8 µM	> 500 µM	12 µM	13 ± 2.1 µM	6 ± 1.4 µM	6 ± 1.4 µM	2.5 ± 0.7 µM	> 500 µM	> 500 µM	8.5 ± 2.1 µM	7.5 ± 3.5 µM	15 µM	9.5 ± 3.5 µM	9 ± 1.4 µM	> 50 µM	> 100 µM	11 ± 1.4 µM	23 µM	11.5 ± 2.1 µM	18 µM	EC50 (HIV-1 (IIIB) [12]): 9.5 ± 3.5 µM; selection of resistant virus strains (HIV): failed
CCCCCCCCCCNCc1c(O)cc2c(c1O)-c1cc(ccc1O)C1NC(=O)C3NC(=O)C4NC(=O)C(Cc5ccc(c(Cl)c5)Oc5cc3cc(c5O)Oc3ccc(cc3Cl)C(O)C(NC1=O)C(=O)NC2C(=O)NCCCN(C)C)NC(=O)C(N)c1ccc(O)c(c1)Oc1cc(O)cc4c1 (stereo not shown) [Compound 15]	6 ± 3.9 µM	48 ± 8 µM					1.4 ± 0.6 µM	> 100 µM	> 100 µM												selection of resistant virus strains (HIV): failed
NC1Cc2ccc(c(Cl)c2)Oc2cc3cc(c2O)Oc2ccc(cc2Cl)C(O)C2NC(=O)C(NC(=O)C3NC(=O)C(c3cc(O)cc(Oc4cc(C5NC(=S)N(c6ccccc6)C5=O)ccc4O)c3)NC1=O)c1ccc(O)c(c1)-c1c(O)cc(O)cc1C(C(=O)O)NC2=O (stereo not shown) [Compound 171]																					EC50 [1, 13]: 29 µM; CC50 (in vitro [2]): > 100 µM; CC50 (in vitro [3]): > 100 µM
CNC(CC(C)C)C(=O)NC1C(=O)NC(CC(N)=O)C(=O)NC2C(=O)NC3C(=O)NC(C(=O)NC(C(=O)O)c4cc(O)c(CN5CCN(Cc6ccc(-c7ccccc7)cc6)CC5)c(O)c4-c4cc3ccc4O)C(O)c3ccc(cc3)Oc3cc2cc(c3O)Oc2ccc(cc2Cl)C1O (stereo not shown) [Compound 6]	12 ± 3.5 µM	250 ± 39 µM	40 µM	20 µM	5.5 ± 0.7 µM	5.5 ± 0.7 µM	5.5 ± 0.7 µM	> 500 µM	> 500 µM	11 ± 1.4 µM		50 µM	16 ± 5.7 µM	22 ± 2.9 µM							MTC (HEL) (HEL cells [4]; anti-VZV table): ≧20-200 μM; activity against VZV (VZV (wild-type strains)): pronounced activity; EC50 (VZV (wild-type strains); [17]): 4200 nM; CC50 (HEL cells [9]; anti-VZV table): > 50 µM
Cc1ccnc2c1NC(=O)c1cccnc1N2C1CC1 [nevirapine, reference compound]																					selection of resistant virus strains (HIV): easily resulted in the emergence
